Measurements as given in paper PMC5218480 (PLoS ONE, 2017).

Tested on: MV-4-11 cells
Assay: Gene expression microarray analysis (Affymetrix PrimeView) and GSEA
Assay type: cell-based, human
Set-up: RFU PODN (11730768_x_at) / Fold change /veh PODN (11730768_x_at) / RFU LINC00158 (11744669_a_at) / Fold change /veh LINC00158 (11744669_a_at) / RFU DUSP10 (11751237_a_at) / Fold change /veh DUSP10 (11751237_a_at) / RFU ID3 (11757404_x_at) / Fold change /veh ID3 (11757404_x_at) / RFU PLEKHG5 (11737974_s_at) / Fold change /veh PLEKHG5 (11737974_s_at) / RFU LRRC4B (11730491_at) / Fold change /veh LRRC4B (11730491_at) / RFU GIMAP4 (11747438_a_at) / Fold change /veh GIMAP4 (11747438_a_at) / RFU KRT8 (11758183_x_at) / Fold change /veh KRT8 (11758183_x_at) / RFU CNN1 (11734310_a_at) / Fold change /veh CNN1 (11734310_a_at) / RFU VPS37D (11726825_at) / Fold change /veh VPS37D (11726825_at) / RFU C10orf10 (11716522_x_at) / Fold change /veh C10orf10 (11716522_x_at) / RFU KIR2DL2 /// KIR2DL4 /// KIR2DL5A /// KIR2DL5B /// KIR2DS1 /// KIR2DS2 /// KIR2DS3 /// KIR2DS4 /// KIR3DL3 /// KIR3DL3 /// KIR3DS1 (11738374_at) / Fold change /veh KIR2DL2 /// KIR2DL4 /// KIR2DL5A /// KIR2DL5B /// KIR2DS1 /// KIR2DS2 /// KIR2DS3 /// KIR2DS4 /// KIR3DL3 /// KIR3DL3 /// KIR3DS1 (11738374_at) / RFU C1QL1 (11718748_at) / Fold change /veh C1QL1 (11718748_at) / RFU TMPRSS4 (11747572_a_at) / Fold change /veh TMPRSS4 (11747572_a_at) / RFU HAMP (11756126_x_at) / Fold change /veh HAMP (11756126_x_at) / RFU RNFT2 (11725882_a_at) / Fold change /veh RNFT2 (11725882_a_at) / RFU NR4A2 (11747474_a_at) / Fold change /veh NR4A2 (11747474_a_at) / RFU ABCC12 (11746883_a_at) / Fold change /veh ABCC12 (11746883_a_at) / RFU TMEM136 (11760407_x_at) / Fold change /veh TMEM136 (11760407_x_at) / RFU CLDN22 /// WWC2 (11732394_at) / Fold change /veh CLDN22 /// WWC2 (11732394_at) / RFU HLA-DPB1 (11760878_x_at) / Fold change /veh HLA-DPB1 (11760878_x_at) / RFU SPINT1 (11716480_a_at) / Fold change /veh SPINT1 (11716480_a_at) / RFU GAP43 (11754022_s_at) / Fold change /veh GAP43 (11754022_s_at) / RFU A4GNT (11735810_at) / Fold change /veh A4GNT (11735810_at) / RFU PRB3 (11715151_x_at) / Fold change /veh PRB3 (11715151_x_at) / RFU TUBB4B (11761932_at) / Fold change /veh TUBB4B (11761932_at) / RFU CAPN14 (11732068_a_at) / Fold change /veh CAPN14 (11732068_a_at) / RFU TMCC2 (11721928_a_at) / Fold change /veh TMCC2 (11721928_a_at) / RFU IRGQ (11745062_a_at) / Fold change /veh IRGQ (11745062_a_at) / RFU FAM174B (11720279_a_at) / Fold change /veh FAM174B (11720279_a_at) / RFU TMPRSS4 (11748680_a_at) / Fold change /veh TMPRSS4 (11748680_a_at) / RFU FAM212B (11763350_a_at) / Fold change /veh FAM212B (11763350_a_at) / RFU PLEKHG5 (11743358_a_at) / Fold change /veh PLEKHG5 (11743358_a_at) / RFU ZSCAN30 (11745921_a_at) / Fold change /veh ZSCAN30 (11745921_a_at) / RFU CMKLR1 (11741424_a_at) / Fold change /veh CMKLR1 (11741424_a_at) / RFU LOC101060620 /// MAPK8IP1 (11723275_at) / Fold change /veh LOC101060620 /// MAPK8IP1 (11723275_at) / RFU SPTSSB (11747773_x_at) / Fold change /veh SPTSSB (11747773_x_at) / RFU PRSS12 (11739890_at) / Fold change /veh PRSS12 (11739890_at) / RFU BIN1 (11741810_x_at) / Fold change /veh BIN1 (11741810_x_at) / RFU WNT11 (11732464_a_at) / Fold change /veh WNT11 (11732464_a_at) / RFU C10orf10 (11716521_a_at) / Fold change /veh C10orf10 (11716521_a_at) / RFU C5orf56 (11738089_at) / Fold change /veh C5orf56 (11738089_at) / RFU CYB561 (11721691_x_at) / Fold change /veh CYB561 (11721691_x_at) / RFU ANKRD19P (11752326_a_at) / Fold change /veh ANKRD19P (11752326_a_at) / RFU OR2T12 /// OR2T33 /// OR2T8 (11738714_s_at) / Fold change /veh OR2T12 /// OR2T33 /// OR2T8 (11738714_s_at) / RFU VCAN (11748164_a_at) / Fold change /veh VCAN (11748164_a_at) / RFU JSRP1 (11732532_at) / Fold change /veh JSRP1 (11732532_at) / RFU KRTAP10-11 (11738290_x_at) / Fold change /veh KRTAP10-11 (11738290_x_at) / RFU MYO3A (11730013_a_at) / Fold change /veh MYO3A (11730013_a_at) / RFU EBF3 (11725865_a_at) / Fold change /veh EBF3 (11725865_a_at) / RFU CAMK2N1 (11719241_x_at) / Fold change /veh CAMK2N1 (11719241_x_at) / RFU C5orf56 (11738088_a_at) / Fold change /veh C5orf56 (11738088_a_at) / RFU OLFML3 (11715873_a_at) / Fold change /veh OLFML3 (11715873_a_at) / RFU LOC100653217 /// NTM (11731650_a_at) / Fold change /veh LOC100653217 /// NTM (11731650_a_at) / RFU MAPK11 (11762145_a_at) / Fold change /veh MAPK11 (11762145_a_at) / RFU FIZ1 (11724087_x_at) / Fold change /veh FIZ1 (11724087_x_at) / RFU OASL (11726364_x_at) / Fold change /veh OASL (11726364_x_at) / RFU SOX15 (11748057_x_at) / Fold change /veh SOX15 (11748057_x_at) / RFU CD79A (11719716_a_at) / Fold change /veh CD79A (11719716_a_at) / RFU HIST1H1D (11736915_at) / Fold change /veh HIST1H1D (11736915_at) / RFU CASKIN2 (11723855_a_at) / Fold change /veh CASKIN2 (11723855_a_at) / RFU LOC730098 (11760151_x_at) / Fold change /veh LOC730098 (11760151_x_at) / RFU OR4N2 (11742367_at) / Fold change /veh OR4N2 (11742367_at) / RFU PRRT2 (11749266_a_at) / Fold change /veh PRRT2 (11749266_a_at) / RFU SNX32 (11753110_a_at) / Fold change /veh SNX32 (11753110_a_at) / RFU CDHR5 (11726645_a_at) / Fold change /veh CDHR5 (11726645_a_at) / RFU RCAN1 (11760418_a_at) / Fold change /veh RCAN1 (11760418_a_at) / RFU FAM167A (11723789_a_at) / Fold change /veh FAM167A (11723789_a_at) / RFU FAM26E (11764081_at) / Fold change /veh FAM26E (11764081_at) / RFU ISYNA1 (11749810_s_at) / Fold change /veh ISYNA1 (11749810_s_at) / RFU ACY1 (11761880_at) / Fold change /veh ACY1 (11761880_at) / RFU 11764098_at / Fold change /veh 11764098_at / RFU SAMD14 (11745864_x_at) / Fold change /veh SAMD14 (11745864_x_at) / RFU NPB (11741838_a_at) / Fold change /veh NPB (11741838_a_at) / RFU TMPRSS6 (11731388_a_at) / Fold change /veh TMPRSS6 (11731388_a_at) / RFU KRTAP10-2 (11738614_at) / Fold change /veh KRTAP10-2 (11738614_at) / RFU ARHGAP8 /// PRR5-ARHGAP8 (11727945_x_at) / Fold change /veh ARHGAP8 /// PRR5-ARHGAP8 (11727945_x_at) / RFU KRTAP5-7 /// NADSYN1 (11734609_at) / Fold change /veh KRTAP5-7 /// NADSYN1 (11734609_at) / RFU RASL12 (11751679_a_at) / Fold change /veh RASL12 (11751679_a_at) / RFU CDKN2B (11736163_a_at) / Fold change /veh CDKN2B (11736163_a_at) / RFU PRF1 (11729649_at) / Fold change /veh PRF1 (11729649_at) / RFU, ZNF638 /// ZNF638-IT1 / Fold change vs veh, ZNF638 /// ZNF638-IT1 / RFU, PANK3 / Fold change vs veh, PANK3 / RFU, SH3YL1 / Fold change vs veh, SH3YL1 / RFU, ZEB2 / Fold change vs veh, ZEB2 / RFU, NRIP1 / Fold change vs veh, NRIP1 / RFU, PTTG1IP / Fold change vs veh, PTTG1IP / RFU, CAPN2 / Fold change vs veh, CAPN2 / RFU, MED14 / Fold change vs veh, MED14 / RFU, SNORA58 / Fold change vs veh, SNORA58 / RFU, C1orf63 / Fold change vs veh, C1orf63 / RFU, LRRFIP1 / Fold change vs veh, LRRFIP1 / RFU, NDUFAF7 / Fold change vs veh, NDUFAF7 / RFU, SLC12A2 / Fold change vs veh, SLC12A2 / RFU, IBTK / Fold change vs veh, IBTK / RFU, ESF1 / Fold change vs veh, ESF1 / Fold change vs veh, TMEM50B / RFU, TAOK1 / Fold change vs veh, TAOK1 / RFU, ACBD3 / Fold change vs veh, ACBD3 / RFU, TMA16 / Fold change vs veh, TMA16 / RFU, RWDD3 / Fold change vs veh, RWDD3 / RFU, BCAT1 / Fold change vs veh, BCAT1 / RFU, EDEM3 / Fold change vs veh, EDEM3 / RFU, TMEM33 / Fold change vs veh, TMEM33 / RFU, WDR75 / Fold change vs veh, WDR75 / RFU, AHCTF1 / Fold change vs veh, AHCTF1 / RFU, TFRC / Fold change vs veh, TFRC / RFU, ZDHHC17 / Fold change vs veh, ZDHHC17 / RFU, NOM1 / Fold change vs veh, NOM1 / RFU, ARL8B / Fold change vs veh, ARL8B / RFU, ZBTB11 / Fold change vs veh, ZBTB11 / RFU, TAMM41 / Fold change vs veh, TAMM41 / RFU, KIAA1704 /// LOC100996395 / Fold change vs veh, KIAA1704 /// LOC100996395 / RFU, ING1 / Fold change vs veh, ING1 / RFU, TRMT61B / Fold change vs veh, TRMT61B / RFU, FUBP3 / Fold change vs veh, FUBP3 / RFU, TP53 / Fold change vs veh, TP53 / RFU, TNKS2 / Fold change vs veh, TNKS2 / RFU, ZFP14 / Fold change vs veh, ZFP14 / RFU, ACTR2 / Fold change vs veh, ACTR2 / RFU, PPP3R1 / Fold change vs veh, PPP3R1 / RFU, PIK3R1 / Fold change vs veh, PIK3R1 / RFU, HNRNPA1 / Fold change vs veh, HNRNPA1 / RFU, RNF170 / Fold change vs veh, RNF170 / RFU, ZNF28 / Fold change vs veh, ZNF28 / RFU, RNGTT / Fold change vs veh, RNGTT / RFU, OGT / Fold change vs veh, OGT / RFU, BRD1 / Fold change vs veh, BRD1 / RFU, MARS / Fold change vs veh, MARS / RFU, ZNF655 / Fold change vs veh, ZNF655 / RFU, FAHD1 / Fold change vs veh, FAHD1 / RFU, BDP1 / Fold change vs veh, BDP1 / RFU, LRRCC1 / Fold change vs veh, LRRCC1 / RFU, ARID1A / Fold change vs veh, ARID1A / RFU, ZNF146 / Fold change vs veh, ZNF146 / RFU, ZNF330 / Fold change vs veh, ZNF330 / RFU, GPN3 / Fold change vs veh, GPN3 / RFU, C9orf123 / Fold change vs veh, C9orf123 / RFU, N4BP2L2 / Fold change vs veh, N4BP2L2 / RFU, ARFIP1 / Fold change vs veh, ARFIP1 / RFU, FAM179B / Fold change vs veh, FAM179B / RFU, BCL10 / Fold change vs veh, BCL10 / RFU, UHRF1BP1L / Fold change vs veh, UHRF1BP1L / RFU, BET1 / Fold change vs veh, BET1 / RFU, CNOT2 / Fold change vs veh, CNOT2 / RFU, ZNF268 / Fold change vs veh, ZNF268 / Fold change vs veh, ZNF507 / RFU, DGCR2 / Fold change vs veh, DGCR2 / RFU, WDSUB1 / Fold change vs veh, WDSUB1 / Fold change vs veh, HSP90B1 /// MIR3652 / RFU, ADSS / Fold change vs veh, ADSS / RFU, GK / Fold change vs veh, GK / RFU, ZNF148 / Fold change vs veh, ZNF148 / RFU, TAF9 / Fold change vs veh, TAF9 / RFU, SLC1A5 / Fold change vs veh, SLC1A5 / RFU, SLMO2 / Fold change vs veh, SLMO2 / RFU, ABCC4 / Fold change vs veh, ABCC4 / RFU, LOC101060439 /// RAP1B / Fold change vs veh, LOC101060439 /// RAP1B / RFU, RFX7 / Fold change vs veh, RFX7 / RFU, GTPBP10 / Fold change vs veh, GTPBP10 / RFU, CNEP1R1 / Fold change vs veh, CNEP1R1 / RFU, BIVM-ERCC5 /// ERCC5 / Fold change vs veh, BIVM-ERCC5 /// ERCC5 / RFU, ILF3 / Fold change vs veh, ILF3 / RFU 11762660_at / Fold change /veh 11762660_at / RFU VCAN (11757783_s_at) / Fold change /veh VCAN (11757783_s_at) / RFU DDX43 (11728927_at) / Fold change /veh DDX43 (11728927_at) / RFU KRT8 (11758188_x_at) / Fold change /veh KRT8 (11758188_x_at) / RFU NKD1 (11759106_at) / Fold change /veh NKD1 (11759106_at) / RFU SRD5A1 (11742802_a_at) / Fold change /veh SRD5A1 (11742802_a_at) / RFU TPSAB1 /// TPSB2 (11721975_s_at) / Fold change /veh TPSAB1 /// TPSB2 (11721975_s_at) / RFU GSTM3 (11746129_a_at) / Fold change /veh GSTM3 (11746129_a_at) / RFU IL23R (11737362_x_at) / Fold change /veh IL23R (11737362_x_at) / RFU TMEM51 (11727254_a_at) / Fold change /veh TMEM51 (11727254_a_at) / RFU PIWIL2 (11732686_x_at) / Fold change /veh PIWIL2 (11732686_x_at) / RFU ORM1 (11744905_x_at) / Fold change /veh ORM1 (11744905_x_at) / RFU CCDC152 (11743942_at) / Fold change /veh CCDC152 (11743942_at) / RFU ECM1 (11717891_a_at) / Fold change /veh ECM1 (11717891_a_at) / RFU IL23R (11748794_a_at) / Fold change /veh IL23R (11748794_a_at) / RFU TNFAIP8L3 (11732012_x_at) / Fold change /veh TNFAIP8L3 (11732012_x_at) / RFU MBOAT4 (11741988_at) / Fold change /veh MBOAT4 (11741988_at) / RFU 11764193_at / Fold change /veh 11764193_at / RFU TMEM53 (11763286_at) / Fold change /veh TMEM53 (11763286_at) / RFU MAGEB2 (11727129_at) / Fold change /veh MAGEB2 (11727129_at) / RFU TMEM200A (11744735_a_at) / Fold change /veh TMEM200A (11744735_a_at) / RFU CCDC152 (11751479_a_at) / Fold change /veh CCDC152 (11751479_a_at) / RFU FAM211A (11726209_a_at) / Fold change /veh FAM211A (11726209_a_at) / RFU RGS16 (11746705_a_at) / Fold change /veh RGS16 (11746705_a_at) / RFU VCAN (11755009_s_at) / Fold change /veh VCAN (11755009_s_at) / RFU RHOB (11743442_s_at) / Fold change /veh RHOB (11743442_s_at) / RFU RGS16 (11720943_a_at) / Fold change /veh RGS16 (11720943_a_at) / RFU RGS16 (11720944_at) / Fold change /veh RGS16 (11720944_at) / RFU, VPS4B / Fold change vs veh, VPS4B / RFU, CREB1 / Fold change vs veh, CREB1 / RFU, DNAJC13 / Fold change vs veh, DNAJC13 / RFU, GNAQ / Fold change vs veh, GNAQ / RFU, CDK5R1 / Fold change vs veh, CDK5R1 / RFU, ZRANB3 / Fold change vs veh, ZRANB3 / RFU, CUL4A / Fold change vs veh, CUL4A / RFU, CCNY / Fold change vs veh, CCNY / RFU, UFL1 / Fold change vs veh, UFL1 / RFU, COG3 / Fold change vs veh, COG3 / RFU, DIAPH2 / Fold change vs veh, DIAPH2 / RFU, SKA2 / Fold change vs veh, SKA2 / RFU, AFF3 / Fold change vs veh, AFF3 / RFU, LMF1 / Fold change vs veh, LMF1 / RFU, IPO11 / Fold change vs veh, IPO11 / RFU, DFFB / Fold change vs veh, DFFB / RFU, FOXP1 / Fold change vs veh, FOXP1 / RFU, CARD8 / Fold change vs veh, CARD8 / RFU, STRN3 / Fold change vs veh, STRN3 / RFU, ADK / Fold change vs veh, ADK / RFU, RASSF2 / Fold change vs veh, RASSF2 / RFU, WIPF1 / Fold change vs veh, WIPF1 / RFU, LARP1B / Fold change vs veh, LARP1B / RFU, RASA1 / Fold change vs veh, RASA1 / RFU, RB1 / Fold change vs veh, RB1 / RFU, PPFIA1 / Fold change vs veh, PPFIA1 / RFU, MAT2A / Fold change vs veh, MAT2A / RFU, CCT5 / Fold change vs veh, CCT5 / RFU, WDR92 / Fold change vs veh, WDR92 / RFU, CUX1 / Fold change vs veh, CUX1 / RFU, TTC7A / Fold change vs veh, TTC7A / RFU, TMEM135 / Fold change vs veh, TMEM135 / RFU, DEPTOR / Fold change vs veh, DEPTOR / RFU, CPM / Fold change vs veh, CPM / RFU, DNAJB6 / Fold change vs veh, DNAJB6 / RFU, CACNA2D3 / Fold change vs veh, CACNA2D3 / RFU, DTX4 / Fold change vs veh, DTX4 / RFU, TFCP2 / Fold change vs veh, TFCP2 / RFU, GMCL1 /// GMCL1P1 / Fold change vs veh, GMCL1 /// GMCL1P1 / RFU, AEBP2 / Fold change vs veh, AEBP2 / RFU, SNHG1 /// SNORD22 /// SNORD25 /// SNORD26 /// SNORD27 /// SNORD28 /// SNORD29 /// SNORD31 / Fold change vs veh, SNHG1 /// SNORD22 /// SNORD25 /// SNORD26 /// SNORD27 /// SNORD28 /// SNORD29 /// SNORD31 / Fold change (Aza/veh), C12orf56 (ProbeSet 11735607_a_at) / Fold change (ACY-1035/veh), C12orf56 (ProbeSet 11735607_a_at) / Fold change (Aza/veh), FGFR1OP (ProbeSet 11751329_s_at) / Fold change (ACY-1035/veh), FGFR1OP (ProbeSet 11751329_s_at) / Fold change (Aza/veh), VPS36 (ProbeSet 11739960_a_at) / Fold change (ACY-1035/veh), VPS36 (ProbeSet 11739960_a_at) / RFU SYPL1 (11715823_x_at) / Fold change /veh SYPL1 (11715823_x_at) / RFU IGFBP7 (11715501_s_at) / Fold change /veh IGFBP7 (11715501_s_at) / RFU REEP3 (11722064_at) / Fold change /veh REEP3 (11722064_at) / RFU IGLL1 (11728026_x_at) / Fold change /veh IGLL1 (11728026_x_at): dose or concentration left out as unconfirmed
Settings: MV-4-11 cells, 48 hours

## Nc1ncn([C@@H]2O[C@H](CO)[C@@H](O)[C@H]2O)c(=O)n1 [azacitidine]
  RFU GIMAP4 (11747438_a_at): 6.50 RFU
